Test results: ChEMBL document CHEMBL1201862, “PubChem BioAssay data set” (2004)
Calls of active or inactive are those of the source.

Key:
[1] = cells
[2] = tested on: Vero; assay: cells; type: functional, cell-based; details: Chlorocebus sabaeus
[3] = HEp-2 cell cytotoxicity, dose response, cytotoxicity control for RSV inhibitor project, HTS (AID 2410); type: functional; details: human respiratory syncytial virus
[4] = molecular target: Prothrombin (Homo sapiens, UniProt P00734); assay: Thrombin 1536 HTS Dose Response Confirmation. [Related pubchem assays: 1046 (Thrombin 1536 HTS; hits were confirmed in this assay)]; type: functional
[5] = molecular target: Ion channel NompC (Danio rerio, UniProt Q7T1G6); assay: Fluorescence counterscreen assay for TRPML3 agonists: dose response cell-based high-throughput screening assay to identify agonists of the transient receptor potential channel N1 (TRPN1). [Related pubchem assays: 1526, 1424, 1448 ]; type: functional
Sequence of Ion channel NompC (Q7T1G6 whole entry): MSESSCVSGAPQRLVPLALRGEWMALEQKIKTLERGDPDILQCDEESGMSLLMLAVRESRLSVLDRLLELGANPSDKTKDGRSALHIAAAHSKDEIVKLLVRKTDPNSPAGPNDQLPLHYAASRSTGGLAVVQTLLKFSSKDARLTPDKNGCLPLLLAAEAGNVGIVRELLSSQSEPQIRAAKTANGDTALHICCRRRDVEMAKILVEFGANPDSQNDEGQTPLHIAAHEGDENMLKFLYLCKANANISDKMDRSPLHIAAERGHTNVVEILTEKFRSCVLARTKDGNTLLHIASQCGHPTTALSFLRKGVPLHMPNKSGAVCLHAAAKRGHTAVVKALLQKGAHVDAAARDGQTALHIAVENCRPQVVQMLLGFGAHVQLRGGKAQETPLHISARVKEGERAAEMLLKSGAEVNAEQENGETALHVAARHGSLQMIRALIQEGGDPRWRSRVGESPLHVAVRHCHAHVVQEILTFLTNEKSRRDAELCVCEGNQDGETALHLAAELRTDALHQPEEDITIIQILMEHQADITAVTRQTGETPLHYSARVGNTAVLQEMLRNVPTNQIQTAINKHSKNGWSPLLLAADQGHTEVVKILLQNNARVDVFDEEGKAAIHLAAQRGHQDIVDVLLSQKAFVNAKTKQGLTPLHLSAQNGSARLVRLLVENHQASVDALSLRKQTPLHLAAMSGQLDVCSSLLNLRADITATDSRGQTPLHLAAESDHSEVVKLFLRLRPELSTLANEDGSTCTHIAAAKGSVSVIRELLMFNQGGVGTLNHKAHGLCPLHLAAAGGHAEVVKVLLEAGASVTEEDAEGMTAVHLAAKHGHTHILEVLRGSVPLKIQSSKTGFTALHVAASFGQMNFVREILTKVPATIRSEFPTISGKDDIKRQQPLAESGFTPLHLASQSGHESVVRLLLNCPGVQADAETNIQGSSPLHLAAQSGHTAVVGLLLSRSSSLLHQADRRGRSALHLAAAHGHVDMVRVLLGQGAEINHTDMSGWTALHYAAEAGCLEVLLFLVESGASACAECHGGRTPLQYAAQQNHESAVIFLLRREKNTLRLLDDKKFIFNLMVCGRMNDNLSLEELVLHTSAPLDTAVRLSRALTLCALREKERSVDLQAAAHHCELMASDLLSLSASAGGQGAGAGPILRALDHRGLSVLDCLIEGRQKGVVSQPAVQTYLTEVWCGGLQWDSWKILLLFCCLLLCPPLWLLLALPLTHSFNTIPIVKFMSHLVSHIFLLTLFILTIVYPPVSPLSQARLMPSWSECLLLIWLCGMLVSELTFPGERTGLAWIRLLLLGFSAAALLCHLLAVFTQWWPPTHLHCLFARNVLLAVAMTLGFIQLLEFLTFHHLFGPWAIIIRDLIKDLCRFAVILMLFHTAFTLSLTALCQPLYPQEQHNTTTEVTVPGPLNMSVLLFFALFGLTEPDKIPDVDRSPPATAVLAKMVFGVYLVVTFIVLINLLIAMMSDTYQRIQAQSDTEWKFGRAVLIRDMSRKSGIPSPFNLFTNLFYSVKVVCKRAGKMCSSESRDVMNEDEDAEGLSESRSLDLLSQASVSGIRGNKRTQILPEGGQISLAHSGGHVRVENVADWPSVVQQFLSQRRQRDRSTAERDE

[6] = molecular target: T1, Mucolipin-3 (Homo sapiens, UniProt Q8TDD5); assay: Dose response cell-based high-throughput screening assay for agonists of the transient receptor potential channel ML3 (TRPML3). [Related pubchem assays: 1526, 1424, 1448 ]; type: functional
T1 sequence (Q8TDD5 whole entry): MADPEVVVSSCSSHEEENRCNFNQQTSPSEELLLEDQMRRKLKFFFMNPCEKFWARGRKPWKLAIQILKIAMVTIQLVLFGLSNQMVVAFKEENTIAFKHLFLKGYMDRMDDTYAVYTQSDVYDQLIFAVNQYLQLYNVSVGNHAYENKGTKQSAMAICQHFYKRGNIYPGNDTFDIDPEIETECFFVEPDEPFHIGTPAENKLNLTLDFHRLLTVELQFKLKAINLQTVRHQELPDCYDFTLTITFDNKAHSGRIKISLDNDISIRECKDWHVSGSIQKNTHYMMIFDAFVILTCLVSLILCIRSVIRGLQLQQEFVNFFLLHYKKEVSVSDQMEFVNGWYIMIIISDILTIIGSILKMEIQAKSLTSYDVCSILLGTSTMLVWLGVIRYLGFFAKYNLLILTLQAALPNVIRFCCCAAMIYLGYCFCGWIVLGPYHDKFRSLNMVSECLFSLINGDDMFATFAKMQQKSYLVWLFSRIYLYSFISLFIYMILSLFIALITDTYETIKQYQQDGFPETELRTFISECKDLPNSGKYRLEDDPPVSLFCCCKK

[7] = Jurkat T cell cytotoxicity, dose response, cytotoxicity control for P. falciparum gametocyte viability project, luminescence (AID 1117277); type: functional, cell-based;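 further: potency reflects loss of cellular ATP meaning fewer viable cells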
[8] = P. falciparum late gametocyte killing, dose response, luminescence (AID 1117278); type: functional, cell-based;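 further: gametocytes exposed to compound for 24 hours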
[9] = cytotoxicity in KRAS-transformed pancreatic duct cells, primary screen, cell-based, fluorescence, HTS (AID 431); type: functional; details: Homo sapiens;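 further: cell line used: HPDE-C7K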
[10] = cytotoxicity in HPDE-C7 cells, cell-based, fluorescence, HTS (AID 430); type: functional; details: Homo sapiens
[11] = molecular target: Eukaryotic translation initiation factor 4E (Mus musculus, UniProt P63073); assay: eIF4E–eIF4G protein interaction inhibitors, dose response, biochemical, TR-FRET (AID 855); type: functional;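 further: potency for disrupting eIF4E binding to eIF4GI seen as loss of FRET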
Sequence of Eukaryotic translation initiation factor 4E (P63073 whole entry): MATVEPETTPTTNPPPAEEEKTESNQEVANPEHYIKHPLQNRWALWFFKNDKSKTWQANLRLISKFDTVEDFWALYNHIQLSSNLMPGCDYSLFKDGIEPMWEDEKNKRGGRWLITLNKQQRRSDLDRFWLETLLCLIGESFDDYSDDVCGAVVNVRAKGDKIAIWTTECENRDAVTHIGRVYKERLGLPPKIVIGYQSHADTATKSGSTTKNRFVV

[12] = molecular target: T2, Voltage-gated N-type calcium channel alpha-1B subunit/Amyloid beta A4 precursor protein-binding family A member 1 (Homo sapiens, UniProt Q00975+Q02410); type: protein assay
T2 sequence (Q00975 whole entry): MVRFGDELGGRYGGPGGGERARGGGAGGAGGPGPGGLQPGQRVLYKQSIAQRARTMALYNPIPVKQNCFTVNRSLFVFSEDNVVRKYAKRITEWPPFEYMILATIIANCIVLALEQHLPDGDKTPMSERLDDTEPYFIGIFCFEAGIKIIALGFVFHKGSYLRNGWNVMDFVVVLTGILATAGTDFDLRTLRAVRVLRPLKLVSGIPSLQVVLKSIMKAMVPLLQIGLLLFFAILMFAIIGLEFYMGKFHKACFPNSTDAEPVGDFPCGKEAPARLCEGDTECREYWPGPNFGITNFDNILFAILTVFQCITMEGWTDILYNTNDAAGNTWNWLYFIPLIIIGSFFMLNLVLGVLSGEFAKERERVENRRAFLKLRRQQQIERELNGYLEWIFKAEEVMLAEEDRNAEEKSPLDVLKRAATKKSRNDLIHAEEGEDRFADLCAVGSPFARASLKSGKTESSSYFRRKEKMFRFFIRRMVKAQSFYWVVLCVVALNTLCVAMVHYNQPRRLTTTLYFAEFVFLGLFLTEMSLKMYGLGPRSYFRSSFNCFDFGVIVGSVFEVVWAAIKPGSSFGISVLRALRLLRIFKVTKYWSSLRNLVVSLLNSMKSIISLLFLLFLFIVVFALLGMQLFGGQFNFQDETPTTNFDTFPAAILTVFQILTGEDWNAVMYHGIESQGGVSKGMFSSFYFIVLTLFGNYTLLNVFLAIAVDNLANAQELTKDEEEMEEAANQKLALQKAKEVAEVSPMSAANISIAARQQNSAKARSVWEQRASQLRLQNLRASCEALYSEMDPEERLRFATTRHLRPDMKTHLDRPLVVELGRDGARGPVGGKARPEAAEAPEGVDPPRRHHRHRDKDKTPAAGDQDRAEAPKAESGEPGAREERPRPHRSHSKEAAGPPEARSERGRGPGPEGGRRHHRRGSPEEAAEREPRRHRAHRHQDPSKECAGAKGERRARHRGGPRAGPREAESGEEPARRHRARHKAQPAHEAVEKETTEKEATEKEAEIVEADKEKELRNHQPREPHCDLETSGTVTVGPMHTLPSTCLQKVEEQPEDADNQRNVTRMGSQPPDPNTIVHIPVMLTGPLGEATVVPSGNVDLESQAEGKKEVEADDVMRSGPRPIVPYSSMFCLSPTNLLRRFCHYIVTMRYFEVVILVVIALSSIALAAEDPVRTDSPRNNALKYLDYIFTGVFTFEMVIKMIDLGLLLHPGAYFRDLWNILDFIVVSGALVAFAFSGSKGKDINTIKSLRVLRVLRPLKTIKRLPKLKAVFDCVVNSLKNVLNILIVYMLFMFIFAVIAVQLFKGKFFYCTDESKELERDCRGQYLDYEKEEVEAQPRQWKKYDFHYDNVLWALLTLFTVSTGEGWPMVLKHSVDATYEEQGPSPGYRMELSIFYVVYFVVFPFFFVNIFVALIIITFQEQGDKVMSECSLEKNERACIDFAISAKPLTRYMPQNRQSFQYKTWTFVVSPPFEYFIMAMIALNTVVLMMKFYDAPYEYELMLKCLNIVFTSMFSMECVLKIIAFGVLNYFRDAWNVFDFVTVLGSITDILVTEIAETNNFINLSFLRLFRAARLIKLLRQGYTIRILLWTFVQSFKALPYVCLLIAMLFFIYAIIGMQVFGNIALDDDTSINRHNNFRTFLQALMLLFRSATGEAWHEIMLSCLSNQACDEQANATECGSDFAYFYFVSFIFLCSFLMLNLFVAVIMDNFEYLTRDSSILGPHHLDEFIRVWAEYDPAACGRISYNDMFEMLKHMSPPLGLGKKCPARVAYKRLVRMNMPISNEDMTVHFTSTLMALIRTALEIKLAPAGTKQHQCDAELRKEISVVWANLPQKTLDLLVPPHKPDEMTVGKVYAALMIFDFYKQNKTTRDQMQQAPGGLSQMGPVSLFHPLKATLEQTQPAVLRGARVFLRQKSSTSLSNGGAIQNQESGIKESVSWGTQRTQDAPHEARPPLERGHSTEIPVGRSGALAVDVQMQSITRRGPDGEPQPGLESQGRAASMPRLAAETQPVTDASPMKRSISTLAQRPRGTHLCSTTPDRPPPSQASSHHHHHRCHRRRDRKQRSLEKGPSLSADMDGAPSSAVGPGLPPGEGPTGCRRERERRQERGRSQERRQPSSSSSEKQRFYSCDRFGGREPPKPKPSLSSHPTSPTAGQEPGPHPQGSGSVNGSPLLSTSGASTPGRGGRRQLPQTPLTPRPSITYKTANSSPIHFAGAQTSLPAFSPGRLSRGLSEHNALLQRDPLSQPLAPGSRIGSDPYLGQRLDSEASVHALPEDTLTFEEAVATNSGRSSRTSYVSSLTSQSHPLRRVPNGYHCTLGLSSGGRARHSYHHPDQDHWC
T2 sequence (Q02410 whole entry): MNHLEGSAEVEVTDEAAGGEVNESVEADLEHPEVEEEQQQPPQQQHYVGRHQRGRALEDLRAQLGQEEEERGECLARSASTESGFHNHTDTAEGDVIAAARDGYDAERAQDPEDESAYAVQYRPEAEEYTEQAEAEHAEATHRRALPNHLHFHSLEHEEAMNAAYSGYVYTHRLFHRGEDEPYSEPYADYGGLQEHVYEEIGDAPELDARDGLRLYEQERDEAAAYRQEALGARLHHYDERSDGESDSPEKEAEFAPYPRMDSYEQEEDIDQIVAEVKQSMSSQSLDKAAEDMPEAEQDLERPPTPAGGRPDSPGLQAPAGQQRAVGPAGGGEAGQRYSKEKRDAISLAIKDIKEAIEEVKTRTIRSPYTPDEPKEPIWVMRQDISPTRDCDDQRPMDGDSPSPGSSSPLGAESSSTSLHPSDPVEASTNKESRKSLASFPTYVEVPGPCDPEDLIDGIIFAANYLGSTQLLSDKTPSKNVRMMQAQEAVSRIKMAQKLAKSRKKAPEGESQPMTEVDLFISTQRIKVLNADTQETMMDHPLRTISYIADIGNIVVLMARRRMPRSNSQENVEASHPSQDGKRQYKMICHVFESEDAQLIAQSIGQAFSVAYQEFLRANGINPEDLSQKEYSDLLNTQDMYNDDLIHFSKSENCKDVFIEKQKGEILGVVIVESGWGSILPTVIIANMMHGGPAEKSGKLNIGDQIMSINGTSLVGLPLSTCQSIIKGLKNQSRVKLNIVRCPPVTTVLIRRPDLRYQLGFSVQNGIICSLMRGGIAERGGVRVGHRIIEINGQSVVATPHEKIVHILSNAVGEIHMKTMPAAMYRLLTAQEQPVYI

[13] = molecular target: T2, Voltage-gated N-type calcium channel alpha-1B subunit/Amyloid beta A4 precursor protein-binding family A member 1; type: protein assay; remark: listed apart in the source
[14] = A cytotoxicity screen of small molecule inhibitors of the PhoP region in Salmonella typhi identified in the primary screen. [Related pubchem assays: 1850, 1864, 1985 ]; type: functional

## O=C(NC(Cc1c[nH]c2ccccc12)C(=O)Nc1ccc(F)cc1)c1cccs1 (stereo unspecified)
[1]
  IC50: 12.8 µM (active)
[2]
  IC50: 8.41 µM (active)
[3]
  CC50: 15.6 µM (active)

## Cc1ccc2c(c1)CC1(CN2C)C(=O)OC(C)(C)OC1=O
[4]
  IC50: 1.69 µM (active)

## O=C(CC(Nc1ccc(F)cc1)C(=O)OCC(=O)c1cccs1)c1ccccc1 (stereo unspecified)
[4]
  IC50: 2.82 µM (active)

## COc1ccc(S(=O)(=O)N(CC(=O)N2CCOCC2)c2cc(Cl)ccc2OC)cc1OC
[5]
  EC50: > 29.9 µM (not active)
[6]
  EC50: 4.75 µM (active)

## Cc1ccccc1N1CCN(S(=O)(=O)c2ccccc2)CC1
[5]
  EC50: > 29.9 µM (not active)
[6]
  EC50: 5.11 µM (active)

## O=C(c1ccco1)N1CCN(C(=O)C2c3ccccc3Oc3ccccc32)CC1
[7]
  IC50: 64.4 µM (inactive)
[8]
  IC50: > 109 µM (inactive)

## CCCCOc1cccc(C(=O)Nc2ccc(N3CCN(CC)CC3)cc2)c1
[9]
  EC50: > 20 µM (not active)
[10]
  EC50: > 20 µM (not active)

## CCn1c(C)c(C(C)=O)c(N2CCN(C(=O)c3ccco3)CC2)nc1=S
[11]
  IC50: > 64 µM (inactive)

## Cc1cc(C)c(C2=NOC3C4CCC(C4)C23)c(C)c1 (stereo unspecified)
[5]
  EC50: > 29.9 µM (not active)
[6]
  EC50: 1.77 µM (active)

## Cc1cc(C)nc(NC(=S)Nc2cccc(Cl)c2Cl)c1
[12]
  IC50: > 50 µM (inactive)
[13]
  IC50: 1.27 µM (active)

## CN(C1CCS(=O)(=O)C1)S(=O)(=O)c1ccccc1 (stereo unspecified)
[7]
  IC50: > 83.3 µM (inactive)
[8]
  IC50: > 109 µM (inactive)

## CC(C)(C)c1ccc(C(=O)NNC(=O)Cc2ccccc2)cc1
[14]
  EC50: > 50 µM (active)
